# Article PMC8364686, “Safety, tolerability, pharmacokinetics and pharmacodynamics of single oral doses of BI 187004, an inhibitor of 11beta-hydroxysteroid dehydrogenase-1, in healthy male volunteers with overweight or obesity” (Clinical Diabetes and Endocrinology, 2021)
# Several values for one entry are separate records, joined by “and”; a condition that tells them apart may be missing. Equal values may be shown once.
# Assay: Plasma pharmacokinetics of BI 187004 after single oral doses (LC–MS/MS)
# Settings: for BI 187004 plasma concentrations: individual subjects
# [1] = male, human, plasma, po, 2.5 mg
# [2] = male, human, plasma, po, 2.5 mg, Plasma concentration Mean, 2.5 mg single oral
# [3] = male, human, plasma, po, 2.5 mg, Plasma concentration Median, 2.5 mg single oral
# [4] = male, human, plasma, po, 2.5 mg, Plasma concentration gMean, 2.5 mg single oral
structure (smiles),measurement,setting,value
N#Cc1ccc2c(c1)[C@H]1CCCN(C(=O)c3ccc4[nH]cnc4c3)[C@H]1C2 [BI 187004],"Plasma concentration, individual subjects","2.5 mg single oral, planned time 0.5 h",BLQ (Below Limit of Quantification (<3.00 nmol/L)) and 5.84 nmol/L and 15.8 nmol/L and 8.84 nmol/L
same,"Plasma concentration, individual subjects","2.5 mg single oral, planned time 1 h",BLQ (Below Limit of Quantification (<3.00 nmol/L)) and 6.77 nmol/L and 28.4 nmol/L and 17.6 nmol/L and 7.86 nmol/L and 5.64 nmol/L
same,"Plasma concentration, individual subjects","2.5 mg single oral, planned time 1.5 h",BLQ (Below Limit of Quantification (<3.00 nmol/L)) and 6.06 nmol/L and 17.2 nmol/L and 14.9 nmol/L and 12.1 nmol/L and 5.62 nmol/L
same,"Plasma concentration, individual subjects","2.5 mg single oral, planned time 2 h",BLQ (Below Limit of Quantification (<3.00 nmol/L)) and 4.97 nmol/L and 13.8 nmol/L and 11.0 nmol/L and 9.41 nmol/L and 4.67 nmol/L
same,"Plasma concentration, individual subjects","2.5 mg single oral, planned time 2.5 h",BLQ (Below Limit of Quantification (<3.00 nmol/L)) and 4.45 nmol/L and 12.5 nmol/L and 10.1 nmol/L and 8.45 nmol/L
same,"Plasma concentration, individual subjects","2.5 mg single oral, planned time 3 h",BLQ (Below Limit of Quantification (<3.00 nmol/L)) and 3.48 nmol/L and 11.9 nmol/L and 8.37 nmol/L and 6.66 nmol/L and 3.95 nmol/L
same,"Plasma concentration, individual subjects","2.5 mg single oral, planned time 4 h",BLQ (Below Limit of Quantification (<3.00 nmol/L)) and 3.40 nmol/L and 10.7 nmol/L and 7.79 nmol/L and 6.03 nmol/L and 4.09 nmol/L
same,"Plasma concentration, individual subjects","2.5 mg single oral, planned time 5 h",BLQ (Below Limit of Quantification (<3.00 nmol/L)) and 9.77 nmol/L and 7.70 nmol/L and 6.49 nmol/L and 3.91 nmol/L
same,"Plasma concentration, individual subjects","2.5 mg single oral, planned time 6 h",BLQ (Below Limit of Quantification (<3.00 nmol/L)) and 7.52 nmol/L and 6.22 nmol/L and 5.34 nmol/L and 3.36 nmol/L
same,"Plasma concentration, individual subjects","2.5 mg single oral, planned time 8 h",BLQ (Below Limit of Quantification (<3.00 nmol/L)) and 6.55 nmol/L and 5.06 nmol/L
same,"Plasma concentration, individual subjects","2.5 mg single oral, planned time 10 h",BLQ (Below Limit of Quantification (<3.00 nmol/L)) and 5.19 nmol/L and 3.85 nmol/L and 3.08 nmol/L
same,"Plasma concentration, individual subjects","2.5 mg single oral, planned time 12 h",BLQ (Below Limit of Quantification (<3.00 nmol/L)) and 4.76 nmol/L and 4.10 nmol/L and 3.34 nmol/L
same,"Plasma concentration, individual subjects","2.5 mg single oral, planned time 24 h",BLQ (Below Limit of Quantification (<3.00 nmol/L)) and 6.66 nmol/L and 5.03 nmol/L and 3.69 nmol/L and 3.73 nmol/L
same,"Plasma concentration, individual subjects","2.5 mg single oral, planned time 36 h",BLQ (Below Limit of Quantification (<3.00 nmol/L)) and 3.88 nmol/L
same,"Plasma concentration, individual subjects","2.5 mg single oral, planned time 48 h",BLQ (Below Limit of Quantification (<3.00 nmol/L)) and 5.01 nmol/L and 4.22 nmol/L and 3.14 nmol/L
same,"Plasma concentration, individual subjects","2.5 mg single oral, planned time 72 h",BLQ (Below Limit of Quantification (<3.00 nmol/L)) and 3.91 nmol/L
same,"Plasma concentration, individual subjects","2.5 mg single oral, planned time 96 h",BLQ (Below Limit of Quantification (<3.00 nmol/L))
same,"Plasma concentration, individual subjects","2.5 mg single oral, planned time –0.5 h",BLQ (Below Limit of Quantification (<3.00 nmol/L))
same,CL/F gMean (%gCV),5 mg single oral dose,5.82 (23.0) L/h
same,"Plasma concentration, individual subjects","5 mg single oral, planned time 0.5 h",17.6 nM and 16.1 nM
same,"Plasma concentration, individual subjects","5 mg single oral, planned time 1 h",139 nM and 113 nM
same,"Plasma concentration, individual subjects","5 mg single oral, planned time 1.5 h",137 nM and 105 nM
same,"Plasma concentration, individual subjects","5 mg single oral, planned time 2 h",125 nM and 89.1 nM
same,"Plasma concentration, individual subjects","5 mg single oral, planned time 2.5 h",113 nM and 99.4 nM
same,"Plasma concentration, individual subjects","5 mg single oral, planned time 3 h",104 nM and 89.4 nM
same,"Plasma concentration, individual subjects","5 mg single oral, planned time 4 h",97.2 nM and 80.1 nM
same,"Plasma concentration, individual subjects","5 mg single oral, planned time 5 h",88.2 nM and 69.3 nM
same,"Plasma concentration, individual subjects","5 mg single oral, planned time 6 h",74.1 nM and 59.0 nM and 90.2 nM
same,"Plasma concentration, individual subjects","5 mg single oral, planned time 8 h",67.1 nM and 53.5 nM and 81.4 nM
same,"Plasma concentration, individual subjects","5 mg single oral, planned time 10 h",63.2 nM and 54.2 nM and 38.5 nM and 58.5 nM
same,"Plasma concentration, individual subjects","5 mg single oral, planned time 12 h",54.1 nM and 51.5 nM and 32.5 nM
same,"Plasma concentration, individual subjects","5 mg single oral, planned time 24 h",30.9 nM and 21.5 nM
same,"Plasma concentration, individual subjects","5 mg single oral, planned time 36 h",19.4 nM and 14.0 nM and 9.68 nM
same,"Plasma concentration, individual subjects","5 mg single oral, planned time 48 h",20.9 nM and 11.6 nM and 10.6 nM
same,"Plasma concentration, individual subjects","5 mg single oral, planned time 72 h",12.4 nM and 5.72 nM and 5.44 nM
same,"Plasma concentration, individual subjects","5 mg single oral, planned time 96 h",7.71 nM and 4.37 nM and 3.26 nM
same,"Plasma concentration, individual subjects","5 mg single oral, planned time –0.5 h",BLQ (Below Limit of Quantification (<3.00 nmol/L))
same,CL/F gMean (%gCV),10 mg single oral dose,4.93 (29.2) L/h
same,"Plasma concentration, individual subjects","10 mg single oral, planned time –0.5 h",BLQ (Below Limit of Quantification (<3.00 nmol/L))
same,CL/F gMean (%gCV),20 mg single oral dose,4.70 (41.2) L/h
same,BI 187004 plasma concentrations,"20 mg single oral, planned time 72 h",BLQ (Below Limit of Quantification (<3.00 nmol/L))
same,BI 187004 plasma concentrations,"20 mg single oral, planned time 96 h",BLQ (Below Limit of Quantification (<3.00 nmol/L))
same,BI 187004 plasma concentrations,"20 mg single oral, planned time –0.5 h",BLQ (Below Limit of Quantification (<3.00 nmol/L))
same,CL/F gMean (%gCV),40 mg single oral dose,4.50 (36.1) L/h
same,BI 187004 plasma concentrations,"40 mg single oral, planned time –0.5 h",BLQ (Below Limit of Quantification (<3.00 nmol/L))
same,CL/F gMean (%gCV),80 mg single oral dose,4.56 (40.2) L/h
same,BI 187004 plasma concentrations,"80 mg single oral, planned time –0.5 h",BLQ (Below Limit of Quantification (<3.00 nmol/L))
same,CL/F gMean (%gCV),160 mg single oral dose,4.21 (19.5) L/h
same,BI 187004 plasma concentrations,"160 mg single oral, planned time 96 h",BLQ (Below Limit of Quantification (<3.00 nmol/L))
same,BI 187004 plasma concentrations,"160 mg single oral, planned time –0.5 h",BLQ (Below Limit of Quantification (<3.00 nmol/L))
same,"Time to Cmax, single subject (subject 64)",240 mg,24 h
same,CL/F gMean (%gCV),240 mg single oral dose,6.44 (53.4) L/h
same,BI 187004 plasma concentrations,"240 mg single oral, planned time -0.5 h",BLQ (Below Limit of Quantification (<3.00 nmol/L))
same,CL/F gMean (%gCV),360 mg single oral dose,5.48 (25.4) L/h
same,BI 187004 plasma concentrations,"360 mg single oral, planned time –0.5 h",BLQ (Below Limit of Quantification (<3.00 nmol/L))
same,"Apparent clearance (CL/F), range across dose groups",5–360 mg,4.21—6.44 L/h
same,concentration at 96 h,"male, human, in vivo, po, 240 mg",18.4 nM
same,Vd/F,"male, human, plasma, oral",87.9 to 281 L
same,concentration at 10 h,"male, human, plasma, oral, 10 mg, Plasma C10 gMean (range), 10 mg single dose",174 nM
same,concentration at 24 h,"male, human, plasma, oral, 10 mg, Plasma C24 gMean (range), 10 mg single dose, 24 h",71.3 nM
same,concentration at 10 h,"male, human, plasma, oral, 20 mg, Plasma C10 gMean (range), 20 mg single dose",382 nM
same,concentration at 24 h,"male, human, plasma, oral, 20 mg, Plasma C24 gMean (range), 20 mg single dose, 24 h",161 nM
same,concentration at 10 h,"male, human, plasma, oral, 40 mg, Plasma C10 gMean (range), 40 mg single dose",796 nM
same,concentration at 24 h,"male, human, plasma, oral, 40 mg, Plasma C24 gMean (range), 40 mg single dose, 24 h",321 nM
same,concentration at 10 h,"male, human, plasma, oral, 80 mg, Plasma C10 gMean (range), 80 mg single dose",1530 nM
same,concentration at 24 h,"male, human, plasma, oral, 80 mg, Plasma C24 gMean (range), 80 mg single dose, 24 h",878 nM
same,concentration at 10 h,"male, human, plasma, oral, 160 mg, Plasma C10 gMean (range), 160 mg single dose",3000 nM
same,concentration at 24 h,"male, human, plasma, oral, 160 mg, Plasma C24 gMean (range), 160 mg single dose, 24 h",1630 nM
same,concentration at 10 h,"male, human, plasma, oral, 240 mg, Plasma C10 gMean (range), 240 mg single dose",2600 nM
same,concentration at 24 h,"male, human, plasma, oral, 240 mg, Plasma C24 gMean (range), 240 mg single dose, 24 h",2130 nM
same,concentration at 10 h,"male, human, plasma, oral, 360 mg, Plasma C10 gMean (range), 360 mg single dose",5300 nM
same,concentration at 24 h,"male, human, plasma, oral, 360 mg, Plasma C24 gMean (range), 360 mg single dose, 24 h",2690 nM
same,Tmax,"male, human, plasma, po",1 to 1.5 h
same,AUC(0-t),[1],0.212 µM·h
same,Cmax,[1],11.8 nM
same,Tmax,[1],1 h
same,concentration at 24 h,"male, human, plasma, po, 2.5 mg, C24 gMean (%gCV), 2.5 mg single oral dose",4.54 nM
same,concentration at 1 h,[2],13.3 nM
same,concentration at 1.5 h,[2],11.2 nM
same,concentration at 2 h,[2],8.77 nM
same,concentration at 2.5 h,[2],7.99 nM
same,concentration at 3 h,[2],6.87 nM
same,concentration at 4 h,[2],6.4 nM
same,concentration at 5 h,[2],6.97 nM
same,concentration at 6 h,[2],5.61 nM
same,concentration at 10 h,[2],4.53 nM
same,concentration at 12 h,[2],4.66 nM
same,concentration at 24 h,"male, human, plasma, po, 2.5 mg, Plasma concentration Mean, 2.5 mg single oral, 24 h",4.66 nM
same,concentration at 48 h,[2],3.99 nM
same,concentration at 1 h,[3],7.86 nM
same,concentration at 1.5 h,[3],12.1 nM
same,concentration at 2 h,[3],9.41 nM
same,concentration at 2.5 h,[3],8.45 nM
same,concentration at 3 h,[3],6.66 nM
same,concentration at 4 h,[3],6.03 nM
same,concentration at 5 h,[3],7.1 nM
same,concentration at 6 h,[3],5.78 nM
same,concentration at 10 h,[3],4.52 nM
same,concentration at 12 h,[3],4.43 nM
same,concentration at 24 h,"male, human, plasma, po, 2.5 mg, Plasma concentration Median, 2.5 mg single oral, 24 h",4.19 nM
same,concentration at 48 h,[3],3.9 nM
same,concentration at 1 h,[4],10.8 nM
same,concentration at 1.5 h,[4],10.1 nM
same,concentration at 2 h,[4],8.02 nM
